Values belong to the compound of their own block, whether it stands above or below them.
What was measured:
CYP2C19 [1] = target: T1, CYP2C19 (Homo sapiens, UniProt P33261); test: in vitro; settings: probe (S)-mephenytoin (50 uM)
Description: Inhibitory activity of 100 uM tranylcypromine on 34 Pmoles of cDNA-derived CYP2C19 enzyme in microsome prepared from human lymphoblastoid cell line

CYP2C19 [2] = target: T1, CYP2C19; test: in vitro; settings: probe (S)-mephenytoin (50 uM); remark: listed apart in the source
Description: Inhibitory activity of 100 uM tranylcypromine on 49 Pmoles of cDNA-derived CYP2C19 enzyme in microsome prepared from human lymphoblastoid cell line

CYP2A6 [3] = target: T2, CYP2A6 (Homo sapiens, UniProt P11509); test: in vitro; settings: probe coumarine
T2 sequence (P11509 whole entry): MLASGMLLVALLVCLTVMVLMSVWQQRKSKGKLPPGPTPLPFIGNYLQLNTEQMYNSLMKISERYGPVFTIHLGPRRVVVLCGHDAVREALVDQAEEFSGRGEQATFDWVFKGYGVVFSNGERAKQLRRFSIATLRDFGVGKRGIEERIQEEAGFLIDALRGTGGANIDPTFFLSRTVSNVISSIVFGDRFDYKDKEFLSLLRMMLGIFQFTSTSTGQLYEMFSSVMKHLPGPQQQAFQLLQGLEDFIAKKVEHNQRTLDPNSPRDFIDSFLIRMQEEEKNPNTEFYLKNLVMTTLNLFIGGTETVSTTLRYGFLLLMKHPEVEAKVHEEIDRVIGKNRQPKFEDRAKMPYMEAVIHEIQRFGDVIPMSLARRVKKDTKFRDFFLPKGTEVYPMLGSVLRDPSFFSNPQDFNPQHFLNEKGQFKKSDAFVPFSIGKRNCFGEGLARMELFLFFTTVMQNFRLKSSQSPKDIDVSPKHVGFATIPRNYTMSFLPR

CYP2A6 [4] = target: T2, CYP2A6; test: in vitro; settings: probe coumarine; remark: listed apart in the source
CYP2A6 [5] = target: T2, CYP2A6; test: in vitro; settings: probe coumarine; remark: listed apart in the source
[6] = % of radioactivity recovered as M9 from M2 in faeces following intravenous administration of [14C] aliskiren hemifumarate at 10 mg.Kg-1 level in rat; assay type: ADME, organism-based, Albino HAN:WIST, Feces; settings: in vivo
[7] = % aliskiren hemifumarate recovered as M9 in urine and faeces following single oral dose of 300 mg [14C]SPP100 studied in healthy men; assay type: ADME, organism-based, Urine/Feces; settings: human, in vivo
[8] = % of radioactivity recovered as M9 from M2 in faeces following oral administration of [14C] aliskiren hemifumarate at 100 mg.Kg-1 level in rat; assay type: ADME, organism-based, Albino HAN:WIST, Feces; settings: in vivo
[9] = % aliskiren recovered as metabolite M9 in plasma following 10 day repeated oral administration of [14C] aliskiren hemifumarate at 100 mg.Kg-1 level studied in rat; assay type: ADME, organism-based, Albino HAN:WIST; settings: in vivo, 240 h
[10] = % of radioactivity recovered as M9 from M2 in plasma following intravenous administration of [14C] aliskiren hemifumarate at 10 mg.Kg-1 level in rat; assay type: ADME, organism-based, Albino HAN:WIST; settings: in vivo
[11] = % of radioactivity recovered as M9 from M2 in urine following intravenous administration of [14C] aliskiren hemifumarate at 10 mg.Kg-1 level in rat; assay type: ADME, organism-based, Albino HAN:WIST; settings: in vivo
[12] = % aliskiren recovered as metabolite M9 in urine following 10 day repeated oral administration of [14C] aliskiren hemifumarate at 100 mg.Kg-1 level studied in rat; assay type: ADME, organism-based, Albino HAN:WIST; settings: in vivo, 240 h
[13] = % aliskiren recovered as metabolite M9 in faeces following 10 day repeated oral administration of [14C] aliskiren hemifumarate at 100 mg.Kg-1 level studied in rat; assay type: ADME, organism-based, Albino HAN:WIST, Feces; settings: in vivo, 240 h
[14] = % aliskiren hemifumarate recovered as M9 in urine following single oral dose of 300 mg [14C]SPP100 studied in healthy men; assay type: ADME, organism-based; settings: human, in vivo
[15] = % of radioactivity recovered as M9 from M2 in plasma following oral administration of [14C] aliskiren hemifumarate at 100 mg.Kg-1 level in rat; assay type: ADME, organism-based, Albino HAN:WIST; settings: in vivo
[16] = % aliskiren hemifumarate recovered as M9 in faeces following single oral dose of 300 mg [14C]SPP100 studied in healthy men; assay type: ADME, organism-based, Feces; settings: human, in vivo
[17] = % of radioactivity recovered as M9 from M2 in urine following oral administration of [14C] aliskiren hemifumarate at 100 mg.Kg-1 level in rat; assay type: ADME, organism-based, Albino HAN:WIST; settings: in vivo
[18] = % of radioactivity recovered as M5 from M1 in plasma following oral administration of [14C] aliskiren hemifumarate at 100 mg.Kg-1 level in rat; assay type: ADME, organism-based, Albino HAN:WIST; settings: in vivo
[19] = % aliskiren recovered as M5 from M1 in hydrolysed following single intravenous administration of 10 mg.Kg-1 [14C] aliskiren hemifumarate in male rat; assay type: ADME, organism-based, HAN:WIST(SPF), Bile; settings: in vivo
[20] = % aliskiren recovered as M5 from M1 of receiver rat following duodenal infusion of radioactivity through bile from donor rat treated with single intravenous administration of 10 mg.Kg-1 [14C] aliskiren hemifumarate; assay type: ADME, organism-based, HAN:WIST(SPF); settings: in vivo
[21] = % of radioactivity recovered as M5 from M1 in faeces following intravenous administration of [14C] aliskiren hemifumarate at 10 mg.Kg-1 level in rat; assay type: ADME, organism-based, Albino HAN:WIST, Feces; settings: in vivo
[22] = % of radioactivity recovered as M5 from M1 in plasma following intravenous administration of [14C] aliskiren hemifumarate at 10 mg.Kg-1 level in rat; assay type: ADME, organism-based, Albino HAN:WIST; settings: in vivo
[23] = % of radioactivity recovered as M5 from M1 in urine following intravenous administration of [14C] aliskiren hemifumarate at 10 mg.Kg-1 level in rat; assay type: ADME, organism-based, Albino HAN:WIST; settings: in vivo
[24] = % aliskiren recovered as M5 from M1 in urine following single intravenous administration of 10 mg.Kg-1 [14C] aliskiren hemifumarate in male rat; assay type: ADME, organism-based, HAN:WIST(SPF); settings: in vivo
[25] = % of radioactivity recovered as M5 from M1 in urine following oral administration of [14C] aliskiren hemifumarate at 100 mg.Kg-1 level in rat; assay type: ADME, organism-based, Albino HAN:WIST; settings: in vivo
[26] = % of radioactivity recovered as M5 from M1 in faeces following oral administration of [14C] aliskiren hemifumarate at 100 mg.Kg-1 level in rat; assay type: ADME, organism-based, Albino HAN:WIST, Feces; settings: in vivo
[27] = % aliskiren recovered as M5 from M1 in bile following single intravenous administration of 10 mg.Kg-1 [14C] aliskiren hemifumarate in male rat; assay type: ADME, organism-based, HAN:WIST(SPF); settings: in vivo

T1 sequence (P33261 whole entry): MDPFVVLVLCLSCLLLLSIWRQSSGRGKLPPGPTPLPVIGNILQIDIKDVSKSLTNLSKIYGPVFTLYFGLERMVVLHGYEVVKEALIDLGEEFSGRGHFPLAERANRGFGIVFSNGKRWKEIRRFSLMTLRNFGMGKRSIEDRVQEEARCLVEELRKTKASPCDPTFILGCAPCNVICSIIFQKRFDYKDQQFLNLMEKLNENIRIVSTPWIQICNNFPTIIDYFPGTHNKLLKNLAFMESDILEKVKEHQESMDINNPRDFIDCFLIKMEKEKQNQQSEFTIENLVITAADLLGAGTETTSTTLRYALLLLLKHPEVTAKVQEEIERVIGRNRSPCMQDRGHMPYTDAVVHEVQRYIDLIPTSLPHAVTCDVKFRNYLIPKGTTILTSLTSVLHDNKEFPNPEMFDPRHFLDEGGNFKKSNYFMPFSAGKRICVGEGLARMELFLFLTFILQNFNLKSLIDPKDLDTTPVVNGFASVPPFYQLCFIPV

Compound: N[C@@H]1C[C@H]1c1ccccc1.N[C@H]1C[C@@H]1c1ccccc1 [TRANYLCYPROMINE]
inhibition at 100 µM (CYP2C19 [1]): 97% | inhibition at 100 µM (CYP2C19 [2]): 96% | inhibition at 100 µM (CYP2A6 [3]): 98% | inhibition at 100 µM (CYP2A6 [4]): 99% | inhibition at 100 µM (CYP2A6 [5]): 97%

Compound recovery [7]: OUTCOME = Not detected | Compound recovery [14]: OUTCOME = Not detected | Compound recovery [16]: OUTCOME = Not detected
Compound: COCCCOc1cc(C[C@@H](C[C@H](N)[C@@H]2C[C@H](C(C)C)C(=O)O2)C(C)C)ccc1OC
Compound recovery [6]: OUTCOME = Not detected or not investigated | Compound recovery [8]: OUTCOME = Not detected or not investigated | Compound recovery [9]: OUTCOME = Observed, VALUE = Minor amounts | Compound recovery [10]: OUTCOME = Not detected or not investigated | Compound recovery [11]: OUTCOME = Not detected or not investigated | Compound recovery [12]: OUTCOME = Observed, VALUE = Minor amounts | Compound recovery [13]: OUTCOME = Observed, VALUE = Minor amounts | Compound recovery [15]: OUTCOME = Not detected or not investigated | Compound recovery [17]: OUTCOME = Non-radiolabeled metabolite was observed by LC-MS

Compound recovery [18]: > 2% | Compound recovery [19]: OUTCOME = Not detected | Compound recovery [20]: 8.9% | Compound recovery [22]: <= 2% | Compound recovery [24]: 3.2% | Compound recovery [25]: <= 2% | Compound recovery [27]: 5%
Compound: COCCCOc1cc(C[C@@H](C[C@H](N)[C@@H](O)C[C@H](C(=O)NCC(C)(C)C(N)=O)C(C)C)C(C)C)ccc1O[C@@H]1O[C@H](CO)[C@@H](O)[C@H](O)[C@H]1O
Compound recovery [21]: OUTCOME = Not detected or not investigated | Compound recovery [23]: OUTCOME = Not detected or not investigated | Compound recovery [26]: OUTCOME = Not detected or not investigated

Source: ChEMBL document CHEMBL3508693 (2016)
